In US20040049056A1 (priority 2000, published 2004):
Where two headings read alike, the source gives them in different places.

How the values were obtained:
plants = assay: Assay for herbicidal activity of esculetin compounds (method similar to Assay example 2); type: in vivo
Text: The activities of the following esculetin compounds was confirmed by a method similar to Assay example 2.

plant pathogenic fungi = assay: Assay for antifungal activity of esculetin compounds (method similar to Assay example 1); type: cell-based
Text: The activities of the following esculetin compounds was confirmed by a method similar to Assay example 1.

Septoria tritici = type: cell-based
Pyricularia oryzae = type: cell-based
Pytophthora infestans = type: cell-based
Pythium aphanidermatum = type: cell-based
Fusarium nivale = type: cell-based

## O=c1ccc2cc(O)c(OCc3ccccc3)cc2o1 [7-benzyloxy-6-hydroxycoumarin]
plants
  Herbicidal activity: confirmed
Plant pathogenic fungi
  Antifungal activity: confirmed

## O=c1ccc2cc3c(cc2o1)OCO3 [methylenedioxycoumarin]
plants
  Herbicidal activity: confirmed
Plant pathogenic fungi
  Antifungal activity: confirmed

## CC1(C)Oc2cc3ccc(=O)oc3cc2O1 [esculetin acetonide]
plants
  Herbicidal activity: confirmed
Plant pathogenic fungi
  Antifungal activity: confirmed

## CC1(C)Oc2cc(O)c(C=O)cc2O1 [Compound (e), 2,2-dimethyl-5-formyl-6-hydroxy-1,3-benzodioxol]
Septoria tritici
  Rate of growth suppression (%) S.t: + (key: −: less than 10%; +: 10 to 60%; ++: more than 60%)
Pyricularia oryzae; 10 mg/L, 3 DAT
  Rate of growth suppression (%) P.o: + (10 to 60%)
Pytophthora infestans; 10 mg/L, 4 DAT
  Rate of growth suppression (%) P.i: + (10 to 60%)
other
  melting point: 104 to 105 °C
Pythium aphanidermatum
  Rate of growth suppression (%) P.a: + (key: −: less than 10%; +: 10 to 60%; ++: more than 60%)
Fusarium nivale
  Rate of growth suppression (%) F.niv: + (key: −: less than 10%; +: 10 to 60%; ++: more than 60%)

## O=Cc1cc2c(cc1O)OCO2 [Compound (d), 4,5-methylenedioxysalicylaldehyde]
Septoria tritici
  Rate of growth suppression (%) S.t: + (key: −: less than 10%; +: 10 to 60%; ++: more than 60%)
Pyricularia oryzae
  Rate of growth suppression (%) P.o: + (key: −: less than 10%; +: 10 to 60%; ++: more than 60%)
Pytophthora infestans
  Rate of growth suppression (%) P.i: + (key: −: less than 10%; +: 10 to 60%; ++: more than 60%)
other
  melting point: 125 to 126 °C
Pythium aphanidermatum
  Rate of growth suppression (%) P.a: + (key: −: less than 10%; +: 10 to 60%; ++: more than 60%)
Fusarium nivale
  Rate of growth suppression (%) F.niv: + (key: −: less than 10%; +: 10 to 60%; ++: more than 60%)

## O=Cc1cc(O)c(OCc2ccccc2)cc1O [Compound (b), 2,5-dihydroxy-4-benzyloxybenzaldehyde]
Septoria tritici
  Rate of growth suppression (%) S.t: + (key: −: less than 10%; +: 10 to 60%; ++: more than 60%)
Pyricularia oryzae; 10 mg/L, 3 DAT
  Rate of growth suppression (%) P.o: + (10 to 60%)
Pytophthora infestans; 10 mg/L, 4 DAT
  Rate of growth suppression (%) P.i: + (10 to 60%)
Pythium aphanidermatum
  Rate of growth suppression (%) P.a: ++ (key: −: less than 10%; +: 10 to 60%; ++: more than 60%)
Fusarium nivale
  Rate of growth suppression (%) F.niv: ++ (key: −: less than 10%; +: 10 to 60%; ++: more than 60%)

## CC(=O)Oc1cc(OCc2ccccc2)c(OC(C)=O)cc1C=O [Compound (c), 2,5-diacetoxy-4-benzyloxybenzaldehyde]
Septoria tritici
  Rate of growth suppression (%) S.t: ++ (key: −: less than 10%; +: 10 to 60%; ++: more than 60%)
Pyricularia oryzae; 10 mg/L, 3 DAT
  Rate of growth suppression (%) P.o: + (10 to 60%)
Pytophthora infestans; 10 mg/L, 4 DAT
  Rate of growth suppression (%) P.i: + (10 to 60%)
Pythium aphanidermatum
  Rate of growth suppression (%) P.a: + (key: −: less than 10%; +: 10 to 60%; ++: more than 60%)
Fusarium nivale
  Rate of growth suppression (%) F.niv: ++ (key: −: less than 10%; +: 10 to 60%; ++: more than 60%)

## Oc1ccc(O)c(OCc2ccccc2)c1 [Compound (a), 2-benzyloxy-1,4-hydroquinone]
Septoria tritici
  Rate of growth suppression (%) S.t: + (key: −: less than 10%; +: 10 to 60%; ++: more than 60%)
Pyricularia oryzae
  Rate of growth suppression (%) P.o: ++ (key: −: less than 10%; +: 10 to 60%; ++: more than 60%)
Pytophthora infestans
  Rate of growth suppression (%) P.i: + (key: −: less than 10%; +: 10 to 60%; ++: more than 60%)
Pythium aphanidermatum
  Rate of growth suppression (%) P.a: + (key: −: less than 10%; +: 10 to 60%; ++: more than 60%)
Fusarium nivale
  Rate of growth suppression (%) F.niv: + (key: −: less than 10%; +: 10 to 60%; ++: more than 60%)
